Experimental data as given in patent EP0428423A2, “Aryloxy alkyl benzenes, processes for their preparation and pharmaceutical compositions containing them” (LIPHA S.A., priority 1989, dated 1991).

Experiments:
[1] = test system: RAT; assay: Diuretic activity in the rat (hourly urine volume, sodium and potassium assay); format: in vivo; settings: po; R = RAT; diuretic activity; read-out: Dose minimale active
Source text: (§1) d'urine sont déterminés toutes les heures. Le dosage de sodium et du potassium est effectué par spectrophotométrie.

[2] = test system: SOURIS; assay: Diuretic activity in the mouse (hourly urine volume, sodium and potassium assay); format: in vivo; settings: Mus musculus, po; S = SOURIS; diuretic activity; read-out: Dose minimale active
Source text: as §1

[3] = test system: rats mâles SHR (souche OKAMOTO); assay: Antihypertensive action in the non-anaesthetised SHR rat (systolic blood pressure, sphygmomanometric method); format: in vivo; settings: A = Aigu, 100 mg/kg PO, 24 h after dosing
Source text: L'étude a été effectuée sur des lots de rats mâles SHR (souche OKAMOTO) âgés de 16 semaines. La pression artérielle systolique est déterminée par la méthode sphygmomanométrique (électro sphygmogra- phe NARCO biosystems type PE 300). Les mesures de tension sont réalisées 24 heures après administration d'un composé de formule générale I, la pression artérielle systolique est calculée à partir de la moyenne de 6 à 8 mesures.

[4] = test system: plasmas riches en plaquettes provenant de sang de rat; assay: Platelet anti-aggregation in vitro, ADP-induced (Born aggregometer); format: cell-based; settings: in vitro, aggregating agent ADP, rat platelet-rich plasma, 37°; M not defined in the text; mM printed only in the TICLOPIDINE line
Method: Les études ont été réalisées sur des plasmas riches en plaquettes provenant de sang de rat, l'agrégation étant induite par addition d'acide Adénosine diphosphorique. Les courbes néphélométriques d'agrégation sont obtenues en utilisant un agrégomètre de type BORN, le plasma étant placé en incubation à 37° avec agitation continue de 1100 t/mn (cf. BORN G.V.R et CROSS J. - J. Physiol. 168 (1962) 178.

[5] = target: T1, ECHANGEUR D'ANIONS (Homo sapiens, UniProt P02730); assay: Anion exchanger of human erythrocytes; format: cell-based, ERYTHROCYTES HUMAINS; settings: read-out: EFFET SUR L'ECHANGEUR D'ANIONS IC 50
T1 construct: systèmes de transport du sodium et du potassium des érythrocytes humains; endogenous in cells; host or cells: human erythrocytes
T1 sequence (P02730 1-911): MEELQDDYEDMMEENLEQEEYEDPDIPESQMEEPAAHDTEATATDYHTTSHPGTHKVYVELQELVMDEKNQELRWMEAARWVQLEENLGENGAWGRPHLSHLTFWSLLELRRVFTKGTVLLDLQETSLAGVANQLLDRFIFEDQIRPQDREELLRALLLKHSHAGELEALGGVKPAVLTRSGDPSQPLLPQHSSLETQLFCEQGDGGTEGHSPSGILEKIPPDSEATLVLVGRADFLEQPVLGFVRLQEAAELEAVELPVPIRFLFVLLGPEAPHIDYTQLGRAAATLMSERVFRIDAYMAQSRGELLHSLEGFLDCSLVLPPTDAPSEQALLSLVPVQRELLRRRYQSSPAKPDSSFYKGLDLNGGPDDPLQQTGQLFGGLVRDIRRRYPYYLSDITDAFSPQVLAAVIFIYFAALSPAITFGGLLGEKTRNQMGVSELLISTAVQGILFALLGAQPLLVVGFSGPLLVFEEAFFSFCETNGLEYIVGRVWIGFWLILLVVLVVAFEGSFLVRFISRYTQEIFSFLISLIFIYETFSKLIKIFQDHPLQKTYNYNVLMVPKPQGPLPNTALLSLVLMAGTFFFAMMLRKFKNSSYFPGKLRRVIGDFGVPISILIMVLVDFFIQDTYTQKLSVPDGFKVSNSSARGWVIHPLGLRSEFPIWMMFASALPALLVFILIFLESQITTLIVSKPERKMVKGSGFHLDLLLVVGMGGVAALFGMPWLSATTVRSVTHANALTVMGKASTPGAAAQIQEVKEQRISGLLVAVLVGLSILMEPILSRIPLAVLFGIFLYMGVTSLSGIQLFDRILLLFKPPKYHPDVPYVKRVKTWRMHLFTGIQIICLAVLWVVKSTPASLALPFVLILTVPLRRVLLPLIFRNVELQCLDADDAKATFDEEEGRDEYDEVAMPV
Source text: Cet effet a été étudié selon la méthodologie décrite par G. GARAY et coll. dans Naunyn-Schmidberg's Arch. Pharmakol. 334 (1986) 202-209 et dans Bioch. Pharm. 33 (1984) 2013-2020.

[6] = target: T2, lipoxygénase de soja (Glycine max, UniProt P08170); assay: Anti-lipoxygenase action on soybean lipoxygenase; format: biochemical
T2 sequence (P08170 1-839): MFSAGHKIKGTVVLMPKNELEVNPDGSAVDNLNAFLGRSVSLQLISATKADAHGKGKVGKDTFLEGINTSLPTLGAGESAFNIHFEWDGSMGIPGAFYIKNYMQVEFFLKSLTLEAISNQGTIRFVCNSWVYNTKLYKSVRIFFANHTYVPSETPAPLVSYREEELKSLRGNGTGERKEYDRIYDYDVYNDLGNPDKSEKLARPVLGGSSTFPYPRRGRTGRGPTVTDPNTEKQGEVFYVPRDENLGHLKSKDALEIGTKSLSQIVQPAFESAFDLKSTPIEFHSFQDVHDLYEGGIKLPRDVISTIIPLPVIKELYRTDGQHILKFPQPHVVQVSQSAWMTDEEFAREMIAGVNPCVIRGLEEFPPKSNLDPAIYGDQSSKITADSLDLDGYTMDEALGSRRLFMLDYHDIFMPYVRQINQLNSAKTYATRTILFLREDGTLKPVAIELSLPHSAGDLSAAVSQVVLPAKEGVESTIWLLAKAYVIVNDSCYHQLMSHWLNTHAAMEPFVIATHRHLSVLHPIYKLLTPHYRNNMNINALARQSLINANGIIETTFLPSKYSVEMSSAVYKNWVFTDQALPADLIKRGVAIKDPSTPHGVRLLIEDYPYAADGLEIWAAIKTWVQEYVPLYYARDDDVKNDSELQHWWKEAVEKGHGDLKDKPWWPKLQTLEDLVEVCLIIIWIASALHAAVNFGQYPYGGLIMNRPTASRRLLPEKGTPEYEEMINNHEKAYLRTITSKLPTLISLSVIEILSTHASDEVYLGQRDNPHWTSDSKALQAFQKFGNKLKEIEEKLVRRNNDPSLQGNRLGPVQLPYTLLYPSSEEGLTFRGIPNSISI
Source text: L'action anti-lipoxygénase a été étudiée sur la lipoxygénase de soja selon la méthode décrite par W.L SMITH et W.E LANDS (J. Biol. Chem. 247 (1972) 1038-1047)

IC50 [5]: 800 nM
ACTIVITE ANTI-LIPOXYGENASE IC 50 [6]: Inactif
Structure (SMILES): Cc1ccc(O)c(CCOc2ccccc2)c1 [ex 36]
minimal effective dose [1]: 100 mg/kg
minimal effective dose [2]: 100 mg/kg
Variation de l'effet anti-hyper-tenseur 24 heures après produit [3]: Non actif
M à 50 [4]: inactif
